Laboratory results taken from PMC5218480 (PLoS ONE, 2017).

Test system: MV-4-11 cells
Test: Gene expression microarray analysis (Affymetrix PrimeView) and GSEA
Assay type: cell-based, human
Set-up: RFU PODN (11730768_x_at) / Fold change /veh PODN (11730768_x_at) / RFU LINC00158 (11744669_a_at) / Fold change /veh LINC00158 (11744669_a_at) / RFU DUSP10 (11751237_a_at) / Fold change /veh DUSP10 (11751237_a_at) / RFU ID3 (11757404_x_at) / Fold change /veh ID3 (11757404_x_at) / RFU PLEKHG5 (11737974_s_at) / Fold change /veh PLEKHG5 (11737974_s_at) / RFU LRRC4B (11730491_at) / Fold change /veh LRRC4B (11730491_at) / RFU GIMAP4 (11747438_a_at) / Fold change /veh GIMAP4 (11747438_a_at) / RFU KRT8 (11758183_x_at) / Fold change /veh KRT8 (11758183_x_at) / RFU CNN1 (11734310_a_at) / Fold change /veh CNN1 (11734310_a_at) / RFU VPS37D (11726825_at) / Fold change /veh VPS37D (11726825_at) / RFU C10orf10 (11716522_x_at) / Fold change /veh C10orf10 (11716522_x_at) / RFU KIR2DL2 /// KIR2DL4 /// KIR2DL5A /// KIR2DL5B /// KIR2DS1 /// KIR2DS2 /// KIR2DS3 /// KIR2DS4 /// KIR3DL3 /// KIR3DL3 /// KIR3DS1 (11738374_at) / Fold change /veh KIR2DL2 /// KIR2DL4 /// KIR2DL5A /// KIR2DL5B /// KIR2DS1 /// KIR2DS2 /// KIR2DS3 /// KIR2DS4 /// KIR3DL3 /// KIR3DL3 /// KIR3DS1 (11738374_at) / RFU C1QL1 (11718748_at) / Fold change /veh C1QL1 (11718748_at) / RFU TMPRSS4 (11747572_a_at) / Fold change /veh TMPRSS4 (11747572_a_at) / RFU HAMP (11756126_x_at) / Fold change /veh HAMP (11756126_x_at) / RFU RNFT2 (11725882_a_at) / Fold change /veh RNFT2 (11725882_a_at) / RFU NR4A2 (11747474_a_at) / Fold change /veh NR4A2 (11747474_a_at) / RFU ABCC12 (11746883_a_at) / Fold change /veh ABCC12 (11746883_a_at) / RFU TMEM136 (11760407_x_at) / Fold change /veh TMEM136 (11760407_x_at) / RFU CLDN22 /// WWC2 (11732394_at) / Fold change /veh CLDN22 /// WWC2 (11732394_at) / RFU HLA-DPB1 (11760878_x_at) / Fold change /veh HLA-DPB1 (11760878_x_at) / RFU SPINT1 (11716480_a_at) / Fold change /veh SPINT1 (11716480_a_at) / RFU GAP43 (11754022_s_at) / Fold change /veh GAP43 (11754022_s_at) / RFU A4GNT (11735810_at) / Fold change /veh A4GNT (11735810_at) / RFU PRB3 (11715151_x_at) / Fold change /veh PRB3 (11715151_x_at) / RFU TUBB4B (11761932_at) / Fold change /veh TUBB4B (11761932_at) / RFU CAPN14 (11732068_a_at) / Fold change /veh CAPN14 (11732068_a_at) / RFU TMCC2 (11721928_a_at) / Fold change /veh TMCC2 (11721928_a_at) / RFU IRGQ (11745062_a_at) / Fold change /veh IRGQ (11745062_a_at) / RFU FAM174B (11720279_a_at) / Fold change /veh FAM174B (11720279_a_at) / RFU TMPRSS4 (11748680_a_at) / Fold change /veh TMPRSS4 (11748680_a_at) / RFU FAM212B (11763350_a_at) / Fold change /veh FAM212B (11763350_a_at) / RFU PLEKHG5 (11743358_a_at) / Fold change /veh PLEKHG5 (11743358_a_at) / RFU ZSCAN30 (11745921_a_at) / Fold change /veh ZSCAN30 (11745921_a_at) / RFU CMKLR1 (11741424_a_at) / Fold change /veh CMKLR1 (11741424_a_at) / RFU LOC101060620 /// MAPK8IP1 (11723275_at) / Fold change /veh LOC101060620 /// MAPK8IP1 (11723275_at) / RFU SPTSSB (11747773_x_at) / Fold change /veh SPTSSB (11747773_x_at) / RFU PRSS12 (11739890_at) / Fold change /veh PRSS12 (11739890_at) / RFU BIN1 (11741810_x_at) / Fold change /veh BIN1 (11741810_x_at) / RFU WNT11 (11732464_a_at) / Fold change /veh WNT11 (11732464_a_at) / RFU C10orf10 (11716521_a_at) / Fold change /veh C10orf10 (11716521_a_at) / RFU C5orf56 (11738089_at) / Fold change /veh C5orf56 (11738089_at) / RFU CYB561 (11721691_x_at) / Fold change /veh CYB561 (11721691_x_at) / RFU ANKRD19P (11752326_a_at) / Fold change /veh ANKRD19P (11752326_a_at) / RFU OR2T12 /// OR2T33 /// OR2T8 (11738714_s_at) / Fold change /veh OR2T12 /// OR2T33 /// OR2T8 (11738714_s_at) / RFU VCAN (11748164_a_at) / Fold change /veh VCAN (11748164_a_at) / RFU JSRP1 (11732532_at) / Fold change /veh JSRP1 (11732532_at) / RFU KRTAP10-11 (11738290_x_at) / Fold change /veh KRTAP10-11 (11738290_x_at) / RFU MYO3A (11730013_a_at) / Fold change /veh MYO3A (11730013_a_at) / RFU EBF3 (11725865_a_at) / Fold change /veh EBF3 (11725865_a_at) / RFU CAMK2N1 (11719241_x_at) / Fold change /veh CAMK2N1 (11719241_x_at) / RFU C5orf56 (11738088_a_at) / Fold change /veh C5orf56 (11738088_a_at) / RFU OLFML3 (11715873_a_at) / Fold change /veh OLFML3 (11715873_a_at) / RFU LOC100653217 /// NTM (11731650_a_at) / Fold change /veh LOC100653217 /// NTM (11731650_a_at) / RFU MAPK11 (11762145_a_at) / Fold change /veh MAPK11 (11762145_a_at) / RFU FIZ1 (11724087_x_at) / Fold change /veh FIZ1 (11724087_x_at) / RFU OASL (11726364_x_at) / Fold change /veh OASL (11726364_x_at) / RFU SOX15 (11748057_x_at) / Fold change /veh SOX15 (11748057_x_at) / RFU CD79A (11719716_a_at) / Fold change /veh CD79A (11719716_a_at) / RFU HIST1H1D (11736915_at) / Fold change /veh HIST1H1D (11736915_at) / RFU CASKIN2 (11723855_a_at) / Fold change /veh CASKIN2 (11723855_a_at) / RFU LOC730098 (11760151_x_at) / Fold change /veh LOC730098 (11760151_x_at) / RFU OR4N2 (11742367_at) / Fold change /veh OR4N2 (11742367_at) / RFU PRRT2 (11749266_a_at) / Fold change /veh PRRT2 (11749266_a_at) / RFU SNX32 (11753110_a_at) / Fold change /veh SNX32 (11753110_a_at) / RFU CDHR5 (11726645_a_at) / Fold change /veh CDHR5 (11726645_a_at) / RFU RCAN1 (11760418_a_at) / Fold change /veh RCAN1 (11760418_a_at) / RFU FAM167A (11723789_a_at) / Fold change /veh FAM167A (11723789_a_at) / RFU FAM26E (11764081_at) / Fold change /veh FAM26E (11764081_at) / RFU ISYNA1 (11749810_s_at) / Fold change /veh ISYNA1 (11749810_s_at) / RFU ACY1 (11761880_at) / Fold change /veh ACY1 (11761880_at) / RFU 11764098_at / Fold change /veh 11764098_at / RFU SAMD14 (11745864_x_at) / Fold change /veh SAMD14 (11745864_x_at) / RFU NPB (11741838_a_at) / Fold change /veh NPB (11741838_a_at) / RFU TMPRSS6 (11731388_a_at) / Fold change /veh TMPRSS6 (11731388_a_at) / RFU KRTAP10-2 (11738614_at) / Fold change /veh KRTAP10-2 (11738614_at) / RFU ARHGAP8 /// PRR5-ARHGAP8 (11727945_x_at) / Fold change /veh ARHGAP8 /// PRR5-ARHGAP8 (11727945_x_at) / RFU KRTAP5-7 /// NADSYN1 (11734609_at) / Fold change /veh KRTAP5-7 /// NADSYN1 (11734609_at) / RFU RASL12 (11751679_a_at) / Fold change /veh RASL12 (11751679_a_at) / RFU CDKN2B (11736163_a_at) / Fold change /veh CDKN2B (11736163_a_at) / RFU PRF1 (11729649_at) / Fold change /veh PRF1 (11729649_at) / RFU, ZNF638 /// ZNF638-IT1 / Fold change vs veh, ZNF638 /// ZNF638-IT1 / RFU, PANK3 / Fold change vs veh, PANK3 / RFU, SH3YL1 / Fold change vs veh, SH3YL1 / RFU, ZEB2 / Fold change vs veh, ZEB2 / RFU, NRIP1 / Fold change vs veh, NRIP1 / RFU, PTTG1IP / Fold change vs veh, PTTG1IP / RFU, CAPN2 / Fold change vs veh, CAPN2 / RFU, MED14 / Fold change vs veh, MED14 / RFU, SNORA58 / Fold change vs veh, SNORA58 / RFU, C1orf63 / Fold change vs veh, C1orf63 / RFU, LRRFIP1 / Fold change vs veh, LRRFIP1 / RFU, NDUFAF7 / Fold change vs veh, NDUFAF7 / RFU, SLC12A2 / Fold change vs veh, SLC12A2 / RFU, IBTK / Fold change vs veh, IBTK / RFU, ESF1 / Fold change vs veh, ESF1 / Fold change vs veh, TMEM50B / RFU, TAOK1 / Fold change vs veh, TAOK1 / RFU, ACBD3 / Fold change vs veh, ACBD3 / RFU, TMA16 / Fold change vs veh, TMA16 / RFU, RWDD3 / Fold change vs veh, RWDD3 / RFU, BCAT1 / Fold change vs veh, BCAT1 / RFU, EDEM3 / Fold change vs veh, EDEM3 / RFU, TMEM33 / Fold change vs veh, TMEM33 / RFU, WDR75 / Fold change vs veh, WDR75 / RFU, AHCTF1 / Fold change vs veh, AHCTF1 / RFU, TFRC / Fold change vs veh, TFRC / RFU, ZDHHC17 / Fold change vs veh, ZDHHC17 / RFU, NOM1 / Fold change vs veh, NOM1 / RFU, ARL8B / Fold change vs veh, ARL8B / RFU, ZBTB11 / Fold change vs veh, ZBTB11 / RFU, TAMM41 / Fold change vs veh, TAMM41 / RFU, KIAA1704 /// LOC100996395 / Fold change vs veh, KIAA1704 /// LOC100996395 / RFU, ING1 / Fold change vs veh, ING1 / RFU, TRMT61B / Fold change vs veh, TRMT61B / RFU, FUBP3 / Fold change vs veh, FUBP3 / RFU, TP53 / Fold change vs veh, TP53 / RFU, TNKS2 / Fold change vs veh, TNKS2 / RFU, ZFP14 / Fold change vs veh, ZFP14 / RFU, ACTR2 / Fold change vs veh, ACTR2 / RFU, PPP3R1 / Fold change vs veh, PPP3R1 / RFU, PIK3R1 / Fold change vs veh, PIK3R1 / RFU, HNRNPA1 / Fold change vs veh, HNRNPA1 / RFU, RNF170 / Fold change vs veh, RNF170 / RFU, ZNF28 / Fold change vs veh, ZNF28 / RFU, RNGTT / Fold change vs veh, RNGTT / RFU, OGT / Fold change vs veh, OGT / RFU, BRD1 / Fold change vs veh, BRD1 / RFU, MARS / Fold change vs veh, MARS / RFU, ZNF655 / Fold change vs veh, ZNF655 / RFU, FAHD1 / Fold change vs veh, FAHD1 / RFU, BDP1 / Fold change vs veh, BDP1 / RFU, LRRCC1 / Fold change vs veh, LRRCC1 / RFU, ARID1A / Fold change vs veh, ARID1A / RFU, ZNF146 / Fold change vs veh, ZNF146 / RFU, ZNF330 / Fold change vs veh, ZNF330 / RFU, GPN3 / Fold change vs veh, GPN3 / RFU, C9orf123 / Fold change vs veh, C9orf123 / RFU, N4BP2L2 / Fold change vs veh, N4BP2L2 / RFU, ARFIP1 / Fold change vs veh, ARFIP1 / RFU, FAM179B / Fold change vs veh, FAM179B / RFU, BCL10 / Fold change vs veh, BCL10 / RFU, UHRF1BP1L / Fold change vs veh, UHRF1BP1L / RFU, BET1 / Fold change vs veh, BET1 / RFU, CNOT2 / Fold change vs veh, CNOT2 / RFU, ZNF268 / Fold change vs veh, ZNF268 / Fold change vs veh, ZNF507 / RFU, DGCR2 / Fold change vs veh, DGCR2 / RFU, WDSUB1 / Fold change vs veh, WDSUB1 / Fold change vs veh, HSP90B1 /// MIR3652 / RFU, ADSS / Fold change vs veh, ADSS / RFU, GK / Fold change vs veh, GK / RFU, ZNF148 / Fold change vs veh, ZNF148 / RFU, TAF9 / Fold change vs veh, TAF9 / RFU, SLC1A5 / Fold change vs veh, SLC1A5 / RFU, SLMO2 / Fold change vs veh, SLMO2 / RFU, ABCC4 / Fold change vs veh, ABCC4 / RFU, LOC101060439 /// RAP1B / Fold change vs veh, LOC101060439 /// RAP1B / RFU, RFX7 / Fold change vs veh, RFX7 / RFU, GTPBP10 / Fold change vs veh, GTPBP10 / RFU, CNEP1R1 / Fold change vs veh, CNEP1R1 / RFU, BIVM-ERCC5 /// ERCC5 / Fold change vs veh, BIVM-ERCC5 /// ERCC5 / RFU, ILF3 / Fold change vs veh, ILF3 / RFU 11762660_at / Fold change /veh 11762660_at / RFU VCAN (11757783_s_at) / Fold change /veh VCAN (11757783_s_at) / RFU DDX43 (11728927_at) / Fold change /veh DDX43 (11728927_at) / RFU KRT8 (11758188_x_at) / Fold change /veh KRT8 (11758188_x_at) / RFU NKD1 (11759106_at) / Fold change /veh NKD1 (11759106_at) / RFU SRD5A1 (11742802_a_at) / Fold change /veh SRD5A1 (11742802_a_at) / RFU TPSAB1 /// TPSB2 (11721975_s_at) / Fold change /veh TPSAB1 /// TPSB2 (11721975_s_at) / RFU GSTM3 (11746129_a_at) / Fold change /veh GSTM3 (11746129_a_at) / RFU IL23R (11737362_x_at) / Fold change /veh IL23R (11737362_x_at) / RFU TMEM51 (11727254_a_at) / Fold change /veh TMEM51 (11727254_a_at) / RFU PIWIL2 (11732686_x_at) / Fold change /veh PIWIL2 (11732686_x_at) / RFU ORM1 (11744905_x_at) / Fold change /veh ORM1 (11744905_x_at) / RFU CCDC152 (11743942_at) / Fold change /veh CCDC152 (11743942_at) / RFU ECM1 (11717891_a_at) / Fold change /veh ECM1 (11717891_a_at) / RFU IL23R (11748794_a_at) / Fold change /veh IL23R (11748794_a_at) / RFU TNFAIP8L3 (11732012_x_at) / Fold change /veh TNFAIP8L3 (11732012_x_at) / RFU MBOAT4 (11741988_at) / Fold change /veh MBOAT4 (11741988_at) / RFU 11764193_at / Fold change /veh 11764193_at / RFU TMEM53 (11763286_at) / Fold change /veh TMEM53 (11763286_at) / RFU MAGEB2 (11727129_at) / Fold change /veh MAGEB2 (11727129_at) / RFU TMEM200A (11744735_a_at) / Fold change /veh TMEM200A (11744735_a_at) / RFU CCDC152 (11751479_a_at) / Fold change /veh CCDC152 (11751479_a_at) / RFU FAM211A (11726209_a_at) / Fold change /veh FAM211A (11726209_a_at) / RFU RGS16 (11746705_a_at) / Fold change /veh RGS16 (11746705_a_at) / RFU VCAN (11755009_s_at) / Fold change /veh VCAN (11755009_s_at) / RFU RHOB (11743442_s_at) / Fold change /veh RHOB (11743442_s_at) / RFU RGS16 (11720943_a_at) / Fold change /veh RGS16 (11720943_a_at) / RFU RGS16 (11720944_at) / Fold change /veh RGS16 (11720944_at) / RFU, VPS4B / Fold change vs veh, VPS4B / RFU, CREB1 / Fold change vs veh, CREB1 / RFU, DNAJC13 / Fold change vs veh, DNAJC13 / RFU, GNAQ / Fold change vs veh, GNAQ / RFU, CDK5R1 / Fold change vs veh, CDK5R1 / RFU, ZRANB3 / Fold change vs veh, ZRANB3 / RFU, CUL4A / Fold change vs veh, CUL4A / RFU, CCNY / Fold change vs veh, CCNY / RFU, UFL1 / Fold change vs veh, UFL1 / RFU, COG3 / Fold change vs veh, COG3 / RFU, DIAPH2 / Fold change vs veh, DIAPH2 / RFU, SKA2 / Fold change vs veh, SKA2 / RFU, AFF3 / Fold change vs veh, AFF3 / RFU, LMF1 / Fold change vs veh, LMF1 / RFU, IPO11 / Fold change vs veh, IPO11 / RFU, DFFB / Fold change vs veh, DFFB / RFU, FOXP1 / Fold change vs veh, FOXP1 / RFU, CARD8 / Fold change vs veh, CARD8 / RFU, STRN3 / Fold change vs veh, STRN3 / RFU, ADK / Fold change vs veh, ADK / RFU, RASSF2 / Fold change vs veh, RASSF2 / RFU, WIPF1 / Fold change vs veh, WIPF1 / RFU, LARP1B / Fold change vs veh, LARP1B / RFU, RASA1 / Fold change vs veh, RASA1 / RFU, RB1 / Fold change vs veh, RB1 / RFU, PPFIA1 / Fold change vs veh, PPFIA1 / RFU, MAT2A / Fold change vs veh, MAT2A / RFU, CCT5 / Fold change vs veh, CCT5 / RFU, WDR92 / Fold change vs veh, WDR92 / RFU, CUX1 / Fold change vs veh, CUX1 / RFU, TTC7A / Fold change vs veh, TTC7A / RFU, TMEM135 / Fold change vs veh, TMEM135 / RFU, DEPTOR / Fold change vs veh, DEPTOR / RFU, CPM / Fold change vs veh, CPM / RFU, DNAJB6 / Fold change vs veh, DNAJB6 / RFU, CACNA2D3 / Fold change vs veh, CACNA2D3 / RFU, DTX4 / Fold change vs veh, DTX4 / RFU, TFCP2 / Fold change vs veh, TFCP2 / RFU, GMCL1 /// GMCL1P1 / Fold change vs veh, GMCL1 /// GMCL1P1 / RFU, AEBP2 / Fold change vs veh, AEBP2 / RFU, SNHG1 /// SNORD22 /// SNORD25 /// SNORD26 /// SNORD27 /// SNORD28 /// SNORD29 /// SNORD31 / Fold change vs veh, SNHG1 /// SNORD22 /// SNORD25 /// SNORD26 /// SNORD27 /// SNORD28 /// SNORD29 /// SNORD31 / Fold change (Aza/veh), C12orf56 (ProbeSet 11735607_a_at) / Fold change (ACY-1035/veh), C12orf56 (ProbeSet 11735607_a_at) / Fold change (Aza/veh), FGFR1OP (ProbeSet 11751329_s_at) / Fold change (ACY-1035/veh), FGFR1OP (ProbeSet 11751329_s_at) / Fold change (Aza/veh), VPS36 (ProbeSet 11739960_a_at) / Fold change (ACY-1035/veh), VPS36 (ProbeSet 11739960_a_at) / RFU SYPL1 (11715823_x_at) / Fold change /veh SYPL1 (11715823_x_at) / RFU IGFBP7 (11715501_s_at) / Fold change /veh IGFBP7 (11715501_s_at) / RFU REEP3 (11722064_at) / Fold change /veh REEP3 (11722064_at) / RFU IGLL1 (11728026_x_at) / Fold change /veh IGLL1 (11728026_x_at): dose or concentration left out as unconfirmed
Conditions: MV-4-11 cells, 48 hours

For `Nc1ncn([C@@H]2O[C@H](CO)[C@@H](O)[C@H]2O)c(=O)n1` [azacitidine], the “Fold change /veh 11764098_at” value was 1.18.
